Our source for the EC50 values is patent publication US20240228488A1 (TAKEDA PHARMACEUTICAL COMPANY LIMITED, priority 2021, published 2024).

SMILES strings stand for the structures.

In general, EC50 refers to the concentration that produces a half-maximal response.

human activated kallikrein enzyme, sequence (P03952 391-638 limits assumed): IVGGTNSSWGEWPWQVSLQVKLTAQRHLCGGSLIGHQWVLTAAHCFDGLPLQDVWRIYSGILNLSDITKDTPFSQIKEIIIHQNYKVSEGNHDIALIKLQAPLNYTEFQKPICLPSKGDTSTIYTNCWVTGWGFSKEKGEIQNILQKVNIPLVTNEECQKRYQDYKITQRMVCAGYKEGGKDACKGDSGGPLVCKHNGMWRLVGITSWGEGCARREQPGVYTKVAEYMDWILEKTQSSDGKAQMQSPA
human activated kallikrein enzyme, sequence (P03952 20-390 partner limits assumed): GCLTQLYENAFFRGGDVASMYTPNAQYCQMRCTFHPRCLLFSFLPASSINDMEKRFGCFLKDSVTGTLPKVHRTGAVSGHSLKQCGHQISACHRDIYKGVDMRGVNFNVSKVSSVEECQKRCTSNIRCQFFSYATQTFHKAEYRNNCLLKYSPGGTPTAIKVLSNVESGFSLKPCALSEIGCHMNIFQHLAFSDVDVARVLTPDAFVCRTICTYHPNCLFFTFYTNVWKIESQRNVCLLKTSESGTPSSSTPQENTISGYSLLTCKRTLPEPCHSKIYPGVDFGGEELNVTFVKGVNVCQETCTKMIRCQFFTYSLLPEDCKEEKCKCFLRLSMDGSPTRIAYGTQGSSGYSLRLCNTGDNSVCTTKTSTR

This test concerns the target human activated kallikrein enzyme (Homo sapiens, UniProt P03952). As to the kind of experiment: Plasma kallikrein inhibition, fluorogenic PFR-AMC substrate, 500 pM activated kallikrein format. Type of test: biochemical. To be noted: 500 pM activated kallikrein, 300 uM PFR-AMC, 30 min preincubation, 10 min reaction; read-out: Primary Dose Response Assay: Average EC50. Put shortly: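 Enzyme at 500 pM preincubated 30 min RT with inhibitors in 20 mM Tris pH 7.5, 1 mM EDTA, 150 mM NaCl, 0.1% PEG-400, 0.1% Triton X-100. Reaction started with 300 uM PFR-AMC, run 10 min RT; fluorescence read at 460 nm emission, 380 nm excitation. EC50 reported in ranges.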
For the compound `Nc1cc(Cl)cc([C@H]2C[C@@H]2C(=O)Nc2cc(NCc3cn4cc(C5CC5)ccc4n3)ncn2)c1` (single isomer, unassigned) [Example I-258, rac-(1S*,2S*)-2-(3-amino-5-chlorophenyl)-N-(6-(((6-cyclopropylimidazo[1,2-a]pyridin-2-yl)methyl)amino)pyrimidin-4-yl)cyclopropane-1-carboxamide], the EC50 fell in the range of 1000 to 6000 nM.
Under `Cc1ccnc([C@@H]2C[C@H]2C(=O)Nc2cc(NCc3cn4cc(C5CC5)cc(N5CC(=O)N(C)C5=O)c4n3)ncn2)n1` (single isomer, unassigned) [Example I-261] stands 10 to 100 nM; under `CN1C(=O)CN(c2cc(C3CC3)cn3cc(CNc4cc(NC(=O)[C@@H]5C[C@H]5c5cc(Cl)ccn5)ncn4)nc23)C1=O` (single isomer, unassigned) [Example I-263], 10 to 100 nM.
With `O=C(Nc1cc(NCc2cn3cc(C4CC4)ccc3n2)ncn1)[C@H]1C[C@@H]1c1cc(Cl)ccn1` (single isomer, unassigned) [Example I-266, rac-(1S*,2S*)-2-(4-chloropyridin-2-yl)-N-(6-(((6-cyclopropylimidazo[1,2-a]pyridin-2-yl)methyl)amino)pyrimidin-4-yl)cyclopropane-1-carboxamide], the EC50 was in the range of 100 to 1000 nM.
Under `O=C(Nc1cc(NCc2cn3cc(C4CC4)ccc3n2)ccn1)[C@H]1C[C@@H]1c1cc(Cl)ccn1` (single isomer, unassigned) [Example I-269, rac-(1S*,2S*)-2-(4-chloropyridin-2-yl)-N-(4-(((6-cyclopropylimidazo[1,2-a]pyridin-2-yl)methyl)amino)pyridin-2-yl)cyclopropane-1-carboxamide] stands 10 to 100 nM; under `O=C(Nc1cc(NCc2cn3cc(C4CC4)ccc3n2)ccn1)[C@@H]1C[C@]12CCc1ccc(Cl)cc12` (single isomer, unassigned) [Example I-273, rac-(1S*,2S*)-6′-chloro-N-(4-(((6-cyclopropylimidazo[1,2-a]pyridin-2-yl)methyl)amino)pyridin-2-yl)-2′,3′-dihydrospiro[cyclopropane-1,1′-indene]-2-carboxamide], under 1 nM; under `Cc1ccnc([C@H]2C[C@@H]2C(=O)Nc2ncnc3nn(Cc4cn5cc(C6CC6)cc(N6CC(=O)N(C)C6=O)c5n4)cc23)n1` (single isomer, unassigned) [Example I-633, rac-(1S*,2S*)—N-(2-((6-cyclopropyl-8-(3-methyl-2,4-dioxoimidazolidin-1-yl)imidazo[1,2-a]pyridin-2-yl)methyl)-2H-pyrazolo[3,4-d]pyrimidin-4-yl)-2-(4-methylpyrimidin-2-yl)cyclopropane-1-carboxamide], 100 to 1000 nM.
Under `Cc1ccnc([C@H]2C[C@@H]2C(=O)Nc2ncnc3nn(Cc4cn5cc(C6CC6)cc(N6CC(=O)N(C)C6=O)c5n4)cc23)n1` (single isomer, unassigned) [Example I-634, rac-(1S*,2S*)—N-(2-((6-cyclopropyl-8-(3-methyl-2,4-dioxoimidazolidin-1-yl)imidazo[1,2-a]pyridin-2-yl)methyl)-2H-pyrazolo[3,4-d]pyrimidin-4-yl)-2-(4-methylpyrimidin-2-yl)cyclopropane-1-carboxamide] stands under 1 nM; under `O=C(Nc1cc(N2C[C@@H](O)C[C@@H]2c2cn3cc(C4CC4)ccc3n2)ncn1)[C@H]1C[C@@H]1c1cc(Cl)ccn1` (single isomer, unassigned; isomer 1) [Example I-248, (1S*,2S*)-2-(4-chloropyridin-2-yl)-N-(6-((2R,4S)-2-(6-cyclopropylimidazo[1,2-a]pyridin-2-yl)-4-hydroxypyrrolidin-1-yl)pyrimidin-4-yl)cyclopropane-1-carboxamide, isomer 1], 1000 to 6000 nM; under `O=C(Nc1cc(NCc2cn3cc(C4CC4)cc(N4CCC(O)CC4)c3n2)ncn1)[C@H]1C[C@@H]1c1cccc(Cl)c1` (stereo in doubt) [Example I-3, (1S,2S)-2-(3-chlorophenyl)-N-(6-(((6-cyclopropyl-8-(4-hydroxypiperidin-1-yl)imidazo[1,2-a]pyridin-2-yl)methyl)amino)pyrimidin-4-yl)cyclopropane-1-carboxamide], 1 to 10 nM.
On to `Cc1ccnc([C@H]2C[C@@H]2C(=O)Nc2cc(OC(C)c3cn4cc(C5CC5)cc(N5CC(=O)N(C)C5=O)c4n3)c(C)nn2)n1` (stereo partly drawn) [Example 35, (1S,2S)-N-(5-(1-(6-cyclopropyl-8-(3-methyl-2,4-dioxoimidazolidin-1-yl)imidazo[1,2-α]pyridin-2-yl)ethoxy)-6-methylpyridazin-3-yl)-2-(4-methylpyrimidin-2-yl)cyclopropane-1-carboxamide], for which the EC50 is under 1 nM.
Turning to `Cc1cc(N2CC(=O)N(C)C2=O)c2nc(C(C)Oc3cnnc(NC(=O)[C@H]4C[C@@H]4c4nccc(C)n4)c3)cn2c1` (stereo partly drawn) [Example 36, (1S,2S)-N-(5-(1-(6-methyl-8-(3-methyl-2,4-dioxoimidazolidin-1-yl)imidazo[1,2-α]pyridin-2-yl)ethoxy)pyridazin-3-yl)-2-(4-methylpyrimidin-2-yl)cyclopropane-1-carboxamide], the EC50 is under 1 nM.
`Cc1ccnc([C@H]2C[C@@H]2C(=O)Nc2cc(OC(C)c3cn4cc(C5CC5)cc(N5CCOC5=O)c4n3)cnn2)n1` (stereo partly drawn) [Example 37, (1S,2S)-N-(5-(1-(6-cyclopropyl-8-(2-oxooxazolidin-3-yl)imidazo[1,2-α]pyridin-2-yl)ethoxy)pyridazin-3-yl)-2-(4-methylpyrimidin-2-yl)cyclopropane-1-carboxamide]: the half-maximal effective concentration (EC50) was under 1 nM.
With `COc1cc(NC(=O)[C@H]2C[C@@H]2c2nccc(C)n2)nc(OCc2cn3cc(C4CC4)cc(N4CC(=O)N(C)C4=O)c3n2)c1` [Example 38, (1S,2S)-N-(6-((6-cyclopropyl-8-(3-methyl-2,4-dioxoimidazolidin-1-yl)imidazo[1,2-α]pyridin-2-yl)methoxy)-4-methoxypyridin-2-yl)-2-(4-methylpyrimidin-2-yl)cyclopropane-1-carboxamide] the figure was 1 to 10 nM; with `Cc1ccnc([C@H]2C[C@@H]2C(=O)Nc2cc(OC(C)c3cn4cc(C5CC5)cc(N5CC(=O)NC5=O)c4n3)cnn2)n1` (stereo partly drawn) [Example 39, (1S,2S)—N-(5-(1-(6-cyclopropyl-8-(2,4-dioxoimidazolidin-1-yl)imidazo[1,2-a]pyridin-2-yl)ethoxy)pyridazin-3-yl)-2-(4-methylpyrimidin-2-yl)cyclopropane-1-carboxamide], 1 to 10 nM.
For the compound `O=C(Nc1cc(N(CCO)Cc2cn3cc(C4CC4)ccc3n2)ncn1)[C@H]1C[C@@H]1c1cccc(Cl)c1` [Example 77, (1S,2S)-2-(3-chlorophenyl)-N-(6-(((6-cyclopropylimidazo[1,2-a]pyridin-2-yl)methyl)(2-hydroxyethyl)amino)pyrimidin-4-yl)cyclopropane-1-carboxamide], the concentration giving a half-maximal response (EC50) was 10 to 100 nM.
Under `O=C(Nc1cc(NCc2cn3cc(C4CC4)cc(N4CCCS4(=O)=O)c3n2)ccn1)[C@H]1C[C@@H]1c1cccc(Cl)c1` [Example 121] stands under 1 nM.
Under `O=C(Nc1cc(NCc2cn3cc(C4CC4)cc(N4CC(F)(F)C4)c3n2)ccn1)[C@H]1C[C@@H]1c1cccc(Cl)c1` [Example 124, (1S,2S)-2-(3-chlorophenyl)-N-(4-(((6-cyclopropyl-8-(3,3-difluoroazetidin-1-yl)imidazo[1,2-a]pyridin-2-yl)methyl)amino)pyridin-2-yl)cyclopropane-1-carboxamide] stands 1 to 10 nM.
